Earlier results on 3 molecules are cited in US20080253970A1, “Stable Pharmaceutical Drug Products” (Schering Corporation, priority 2007, published 2008).

Take `CC1(C)O[C@@H]2C[C@H]3[C@@H]4C[C@H](F)C5=CC(=O)C=C[C@]5(C)[C@H]4[C@@H](O)C[C@]3(C)[C@]2(C(=O)CO)O1` [flunisolide]: the solubility in ethanol result was “partially soluble in ethanol”.
Regarding `C[N+]1(C)[C@@H]2C[C@@H](OC(=O)C(O)(c3cccs3)c3cccs3)C[C@H]1[C@@H]1O[C@@H]12` [tiotropium], the solubility in ethanol entry is “partially soluble in ethanol”.
Turning to `C[C@@H]1C[C@H]2[C@@H]3CCC4=CC(=O)C=C[C@]4(C)[C@@]3(Cl)[C@@H](O)C[C@]2(C)[C@@]1(OC(=O)c1ccco1)C(=O)CCl` [mometasone furoate, 9,21-Dichloro-11(beta), 17-dihydroxy-16(alpha)-methylpregna-1,4-diene-3,20-dione17-(2 Furoate)], the solubility in ethanol entry is given as “partially soluble in ethanol”.
